The source of these data is article PMC10583863 (European journal of medicinal chemistry, 2022).

In series [1] the test system is M. tuberculosis H37Rv. Description: microbe, parasite or virus in culture. The series is classed as cell-based, Mycobacterium tuberculosis. Particulars: for MIC90: Mycobacterium tuberculosis, H37RV, read-out: MIC90 MtbH37Rv.
For series [2] the following is noted: in words; cited from earlier work.
The test system of series [3] is M. marinum infected zebrafish larvae. In words: Zebrafish larvae model of M. marinum infection. The series is classed as in vivo. To be noted: caudal vein microinjection, ca. 6–8 ng, by tendency.
The conditions of series [4]: introduction, earlier work; cited from earlier work.
The subject of series [5] is M. tuberculosis H37Rv. To be noted: activity already reported, cited from earlier work.
Another series concerns M. abscessus Bamboo. Description: MIC by broth microdilution, NTM. Particulars: especially against M. abscessus Bamboo; weak.
Series [6] can be described thus: Metabolic stability in human liver microsomes. The series is classed as in vitro ADME. To be noted: 60 min incubation. (In general: Microsomes from liver hold many membrane-bound enzymes, among them those of drug oxidation.)
The next series has as its system H37Rv. Description: MIC by micro-broth dilution method, Mtb panel. Particulars: strain H37Rv. The class given is cell-based, Mycobacterium tuberculosis. In general terms: Broth dilution looks for growth in wells or tubes with falling amounts of substance.
In a further series the test system is Ty1 (Rv3405c, c190t). In words: MIC by micro-broth dilution method, Mtb panel. Particulars: Mycobacterium tuberculosis. The series is classed as cell-based.
For another series, the system named is 81.10 (ethA, Δ1109–37). The class given is cell-based. To be noted: strain 81.10 (ethA, Δ1109–37).

≈ marks a conversion by molar mass, not a printed value. Where two headings read alike, the source gives them in different places.

For the compound `Cc1ccc(Nc2nc(-c3cc(C(=O)Nc4ccccc4)no3)cs2)cc1` [Compound 3], in the series with M. tuberculosis H37Rv [1], the MIC90 was 2.7 µM. Further, the reactivity to glutathione entry in [2] is “ruling out the possibility of indiscriminate reactivity toward biological nucleophiles”. The granuloma formation entry in [3] is “granuloma formation was slightly less pronounced than in the untreated control group”.

`Cc1ccc(Nc2nc(-c3cc(C(=O)Nc4ccccn4)no3)cs2)cc1` [Compound 4]: the MIC90 with M. tuberculosis H37Rv [1] was found to be 1.3 µM. Further, the “half-life in human liver microsomes (HLM)” value in [4] was 35 ± 0.8 min. In addition, the reactivity to glutathione entry in [2] is “ruling out the possibility of indiscriminate reactivity toward biological nucleophiles”.

Consider `Cc1ccc(Nc2nc(-c3cc(C(=O)Nc4ccc(F)cc4)no3)cs2)cc1` [Compound 9a], for which the MIC90 in the series with M. tuberculosis H37Rv [1] turned out to be 2.5 µM.

With `Cc1ccc(Nc2nc(-c3cc(C(=O)Nc4cccc(F)c4)no3)cs2)cc1` [Compound 10a], in the series with M. tuberculosis H37Rv [1], the MIC90 was 6.3 µM.

Consider `Cc1ccc(Nc2nc(-c3cc(C(=O)Nc4ccccc4F)no3)cs2)cc1` [Compound 11a], for which, in the series with M. tuberculosis H37Rv [1], the MIC90 was found to be 2.5 µM.

On to `Cc1ccc(NC(=O)c2cc(-c3csc(Nc4ccc(C)cc4)n3)on2)cc1` [Compound 14a], for which the MIC90 in the series on M. tuberculosis H37Rv [1] came to 2.6 µM.

On to `Cc1ccc(Nc2nc(-c3cc(C(=O)Nc4cccc(C)c4)no3)cs2)cc1` [Compound 15a], for which the MIC90 in the series with M. tuberculosis H37Rv [1] was found to be 1.3 µM.

As for `Cc1ccc(Nc2nc(-c3cc(C(=O)Nc4ccccc4C)no3)cs2)cc1` [Compound 16a], the MIC90 in the series with M. tuberculosis H37Rv [1] worked out at 2.5 µM.

`Cc1ccc(Nc2nc(-c3cc(C(=O)Nc4ccc(O)cc4)no3)cs2)cc1` [Compound 20a]: the MIC90 in the series on M. tuberculosis H37Rv [1] turned out to be 1.3 µM.

As to `Cc1ccc(Nc2nc(-c3cc(C(=O)Nc4ccc(O)cc4)no3)cs2)cc1O` [Compound 20e], the MIC90 in the series with M. tuberculosis H37Rv [1] turned out to be 12.2 µM.

For `Cc1ccc(Nc2nc(-c3cc(C(=O)Nc4cccc(O)c4)no3)cs2)cc1` [Compound 21a], in the series on M. tuberculosis H37Rv [1], the MIC90 is 1.3 µM.

For `Cc1ccc(Nc2nc(-c3cc(C(=O)Nc4ccccc4O)no3)cs2)cc1` [Compound 22a], in the series with M. tuberculosis H37Rv [1], the MIC90 stood at 1.3 µM.

Take `Cc1ccc(Nc2nc(-c3cc(C(=O)Nc4ccncc4)no3)cs2)cc1` [Compound 23a]: the MIC90 in the series with M. tuberculosis H37Rv [1] stood at 2.6 µM.

As for `Cc1ccc(Nc2nc(-c3cc(C(=O)Nc4cccnc4)no3)cs2)cc1` [Compound 24a], in the series on M. tuberculosis H37Rv [1], the MIC90 worked out at 26 µM.

Consider `Cc1ccc(Nc2nc(-c3cc(C(=O)Nc4cc(C)ccn4)no3)cs2)cc1` [Compound 27a], for which, in the series with M. tuberculosis H37Rv [1], the MIC90 turned out to be 2.6 µM.

In the case of `Cc1ccc(Nc2nc(-c3cc(C(=O)Nc4ccsc4)no3)cs2)cc1` [Compound 32a], in the series with M. tuberculosis H37Rv [1], the MIC90 amounted to 2.6 µM.

As for `O=C(Nc1ccccc1)c1cc(-c2csc(Nc3cc(Cl)cc(Cl)c3)n2)on1` [Compound 35b], in the series with M. tuberculosis H37Rv [5], the “MIC90 MtbH37Rv” value was over 20 µg/mL.

With `Cc1cc(C)cc(Nc2nc(-c3cc(C(=O)Nc4ccccc4)no3)cs2)c1` [Compound 35d], in the series on M. tuberculosis H37Rv [1], the MIC90 worked out at 2.5 µM.

In the case of `O=C(Nc1ccccn1)c1cc(-c2csc(Nc3cc(Cl)cc(Cl)c3)n2)on1` [Compound 36b], in the series with M. tuberculosis H37Rv [5], the “MIC90 MtbH37Rv” value was over 20 µg/mL.

On to `Cc1ccc(Nc2nc(-c3cc(C(=O)Nc4ccccc4)no3)cs2)cc1O` [Compound 42e], for which, in the series with M. tuberculosis H37Rv [1], the “antitubercular whole cell activity in words” value is “retained a certain activity” and the MIC90 worked out at 6.3 µM.

Consider `O=C(Nc1ccccc1)c1cc(-c2csc(Nc3ccccc3)n2)on1` [Compound 42g], for which the MIC90 in the series with M. tuberculosis H37Rv [1] was 3.4 µM. Besides, the “inhibitory activity in words” value with M. abscessus Bamboo is recorded as “concentration-dependent inhibitory activity”.

In the case of `Nc1nc(-c2cc(C(=O)Nc3ccccc3)no2)cs1` [Compound 42i], the “metabolic stability in HLM in words” value in [6] was “did not show any significant biotransformation”.

As for `O=C(Nc1ccccc1)c1cc(-c2csc(Nc3cc(Cl)c(Cl)c(Cl)c3)n2)on1` [Compound 42j], in series [6], the “metabolic stability in HLM in words” value is “did not show any significant biotransformation”.

`O=C(Nc1ccccc1)c1cc(-c2csc(Nc3ccc(Cl)cc3)n2)on1` [Compound 42l]: the MIC90 with M. tuberculosis H37Rv [1] came to 3.2 µM.

For the compound `O=C(Nc1ccccc1)c1cc(-c2csc(Nc3cccc(O)c3)n2)on1` [Compound 42m], in the series with M. tuberculosis H37Rv [1], the MIC90 is 13.2 µM.

Take `O=C(Nc1ccccc1)c1cc(-c2csc(Nc3ccc(CO)cc3)n2)on1` [Compound 42n, 5-(2-((4-(hydroxymethyl)phenyl)amino)thiazol-4-yl)-N-phenylisoxazole-3-carboxamide]: the “antitubercular whole cell activity in words” value in the series with M. tuberculosis H37Rv [1] was “no whole cell activity”.

On to `Cc1ccc(Nc2nc(-c3cc(C(=O)Nc4ccccn4)no3)cs2)cc1O` [Compound 43e], for which, in the series on M. tuberculosis H37Rv [1], the “antitubercular whole cell activity in words” value is “retained a certain activity” and the MIC90 is 12.6 µM.

For the compound `O=C(Nc1ccccn1)c1cc(-c2csc(Nc3ccccc3)n2)on1` [Compound 43g], the “inhibitory activity in words” value with M. abscessus Bamboo is given as “concentration-dependent inhibitory activity”.

On to `Nc1nc(-c2cc(C(=O)Nc3ccccn3)no2)cs1` [Compound 43i], for which the “metabolic stability in HLM in words” value in series [6] was “did not show any significant biotransformation”.

Regarding `O=C(Nc1ccccn1)c1cc(-c2csc(Nc3cc(Cl)c(Cl)c(Cl)c3)n2)on1` [Compound 43j], the “metabolic stability in HLM in words” value in series [6] is “did not show any significant biotransformation”.

As for `O=C(Nc1ccccn1)c1cc(-c2csc(Nc3ccc(CO)cc3)n2)on1` [Compound 43n, 5-(2-((4-(hydroxymethyl)phenyl)amino)thiazol-4-yl)-N-(pyridin-2-yl)isoxazole-3-carboxamide], the “antitubercular whole cell activity in words” value in the series with M. tuberculosis H37Rv [1] is “no whole cell activity”.

On to `Cc1ccc(Nc2nc(-c3cc(C(=O)Nc4ccccc4)no3)co2)cc1` [Compound 47], for which the MIC90 with M. tuberculosis H37Rv [1] stood at 2.8 µM.

Turning to `Cc1ccc(Nc2nc(-c3cc(C(=O)Nc4ccccn4)no3)co2)cc1` [Compound 48], the “MIC90 MtbH37Rv” value with M. tuberculosis H37Rv [5] (value in brackets) was 6.9 µM.

For `CCOC(=O)c1cc(-c2cccc(Nc3ccc(C)cc3)n2)on1` [Compound 53, Ethyl 5-(6-(p-tolylamino)pyridin-2-yl)isoxazole-3-carboxylate], the MIC90 with M. tuberculosis H37Rv [1] came out at 3.8 µM.

As for `O=C(Nc1ccccc1)c1cc(C(=O)Nc2nc3ccccc3s2)on1` [Compound 58a], in the series on M. tuberculosis H37Rv [1], the MIC90 is over 40 µg/mL.

Regarding `Cc1ccc2nc(NC(=O)c3cc(C(=O)Nc4ccccn4)no3)sc2c1` [Compound 58b], the MIC90 in the series on M. tuberculosis H37Rv [1] was over 40 µg/mL.

`O=C(Nc1ccccn1)c1cc(C(=O)Nc2nc3ccccc3s2)on1` [Compound 59a]: the MIC90 in the series on M. tuberculosis H37Rv [1] is over 40 µg/mL.

With `Cc1ccc2nc(NC(=O)c3cc(C(=O)Nc4ccccc4)no3)sc2c1` [Compound 59b], in the series with M. tuberculosis H37Rv [1], the MIC90 is over 40 µg/mL.

On to `Cc1cccc(NC(=O)c2cc(C(=O)Nc3nc4ccccc4s3)on2)c1` [Compound 60a], for which, in the series with M. tuberculosis H37Rv [1], the MIC90 is over 40 µg/mL.

Consider `Cc1cccc(NC(=O)c2cc(C(=O)Nc3nc4ccc(C)cc4s3)on2)c1` [Compound 60b], for which, in the series on M. tuberculosis H37Rv [1], the MIC90 is over 40 µg/mL.

On to `COc1ccc2sc(NC(=O)c3cc(C(=O)Nc4cccc(C)c4)no3)nc2c1` [Compound 60c], for which, in the series on M. tuberculosis H37Rv [1], the MIC90 is over 40 µg/mL.

On to `O=C(Nc1ccc(O)cc1)c1cc(C(=O)Nc2nc3ccccc3s2)on1` [Compound 61a], for which the MIC90 with M. tuberculosis H37Rv [1] was over 40 µg/mL.

On to `Cc1ccc2nc(NC(=O)c3cc(C(=O)Nc4ccc(O)cc4)no3)sc2c1` [Compound 61b], for which the MIC90 in the series on M. tuberculosis H37Rv [1] was over 40 µg/mL.

Regarding `O=C(Nc1cccc(F)c1)c1cc(C(=O)Nc2nc3ccccc3s2)on1` [Compound 62a], in the series with M. tuberculosis H37Rv [1], the MIC90 is over 40 µg/mL.

For `O=C(Nc1cccc(O)c1)c1cc(C(=O)Nc2nc3ccccc3s2)on1` [Compound 63a], in the series on M. tuberculosis H37Rv [1], the MIC90 is over 40 µg/mL.

With `NNC(=O)c1ccncc1` [INH, Isoniazide], the MIC90 in the series with H37Rv is 0.025 µg/mL (≈ 0.182 µM); against Ty1 (Rv3405c, c190t), 0.025 µg/mL (≈ 0.182 µM); in the series with 81.10 (ethA, Δ1109–37) it was 0.025 µg/mL (≈ 0.182 µM). Moreover, the “MIC90 MtbH37Rv” value in the series with M. tuberculosis H37Rv [1] (REMA method, M. tuberculosis H37Rv) was determined as 0.025 µg/mL (≈ 0.182 µM).
